Measured values taken from patent publication US12564638B2 (SHANGHAITECH UNIVERSITY, priority 2019, dated 2026).
pIC50: −log10 of the molar value.

tested on: HCC827 cells (EGFR Exon19 del, non-small cell lung cancer cells); assay: Cell viability assay (WST/CCK8), HCC827 cells; format: cell-based; conditions: HCC827 cells, 72 hours
From the text: The cell lines with abnormal EGFR expression used are as follows: • HCC827 cells (EGFR Exon19 del, non-small cell lung cancer cells); • PC9 cells (EGFR Exon 19 del, non-small cell lung cancer cells); • PC9BracA1 (EGFR Exon 19 del+T790M, non-small cell lung cancer cells) • H1975 (EGFR Exon T790M+L858R mutation, non-small cell lung cancer cell line) • BT474 cells (HER2 positive breast cancer cells)
All of the half inhibitory concentrations (IC50) of these compounds of the present invention were determined with WST reagent from Fuyuan Biotec Company. The specific experiment procedures are as follows: Cancer cells were planted in 96-well-plate at the density of 3 000 cells per well with 100 μL RPMI1640 completed culture medium. In the next day, compounds with indicated concentrations were added to the cells, DMSO was used as the negative control and the EGFR TKIs were used to treat cells as the positive groups. After 72 hours drug treatment, cell viability was measured by using the WST reagent following the instructions.
The cells were treated with the gradient concentration of these compounds (the maximum concentration: 10 μM; 3-fold dilution ratio, 10 concentration gradients) for 72 hours and then incubated with the WST (CCK8) reagent to determine the cell viability.

`COc1cc2ncnc(Nc3cccc(Cl)c3F)c2cc1OC1CCN(CC(=O)NCCCCSc2cccc3c2CN(C2CCC(=O)NC2=O)C3=O)CC1` (stereo not shown) [SIAIS293067, 2-(4-((4-((3-chloro-2-fluorophenyl)amino)-7-methoxyquinazolin-6-yl)oxy)piperidin-1-yl)-N-(4-((2-(2,6-dioxopiperidin-3-yl)-1-oxoisoindolin-4-yl)thio)butyl)acetamide] was tested. Which “cell proliferation inhibition (in words)” value did it give?
Its value is “better than sapitinib on cell killing”.

same assay, conditions: Homo sapiens, HCC827, 72 h, HCC827 (Exon19 Del), 72 hours, WST (CCK8); read-out: IC50 (half inhibitory concentration)

How did the pIC50 turn out when `COc1cc2ncnc(Nc3ccc(F)c(Cl)c3)c2cc1NC(=O)/C=C/CN1CCN(C(=O)COCCOCCOCCOCCOCCSc2cccc3c2C(=O)N(C2CCC(=O)NC2=O)C3=O)CC1` (stereo not shown) [SIAIS262008, (E)-N-(4-((3-chloro-4-fluorophenyl)amino)-7-methoxyquinazolin-6-yl)-4-(4-(17-((2-(2,6-dioxopiperidin-3-yl)-1,3-dioxoisoindolin-4-yl)thio)-3,6,9,12,15-pentaoxaheptadecanoyl)piperazin-1-yl)but-2-enamide] was run?
The pIC50 was 7.33.

With `COc1cc2ncnc(Nc3ccc(F)c(Cl)c3)c2cc1NC(=O)/C=C/CN1CCC(N2CCN(CCCCCCCCCCCSc3cccc4c3CN(C3CCC(=O)NC3=O)C4=O)CC2)CC1` (stereo not shown) [SIAIS337040, (E)-N-(4-((3-chloro-4-fluorophenyl)amino)-7-methoxyquinazolin-6-yl)-4-(4-(4-(11-((2-(2,6-dioxopiperidin-3-yl)-1-oxoisoindolin-4-yl)thio)undecyl)piperazin-1-yl)piperidin-1-yl)but-2-enamide] as the molecule, how does the pIC50 read?
Its pIC50 is 7.57.

same assay, conditions: Homo sapiens, HCC827, 72 h, Table 3, poziotinib-based compounds; HCC827 (Exon19 Del); 72 hours; WST (CCK8); read-out: IC50 (half inhibitory concentration)

How did the pIC50 turn out when `COc1cc2ncnc(Nc3ccc(Cl)c(Cl)c3F)c2cc1OC1CCN(C(=O)CCOCCOCCC(=O)N[C@H](C(=O)N2C[C@H](O)C[C@H]2C(=O)NCc2ccc(-c3scnc3C)cc2)C(C)(C)C)CC1` [SIAIS249025, (2S,4R)-1-((S)-2-(3-(2-(3-(4-((4-((3,4-dichloro-2-fluorophenyl)amino)-7-methoxyquinazolin-6-yl)oxy)piperidin-1-yl)-3-oxopropoxy)ethoxy)propanamido)-3,3-dimethylbutanoyl)-4-hydroxy-N-(4-(4-methylthiazol-5-yl)benzyl)pyrrolidine-2-carboxamide] was run?
Its pIC50 is 6.80.

How did the pIC50 turn out when `COc1cc2ncnc(Nc3ccc(Cl)c(Cl)c3F)c2cc1OC1CCN(C(=O)CCOCCNc2cccc3c2C(=O)N(C2CCC(=O)NC2=O)C3=O)CC1` (stereo not shown) [SIAIS249029, 4-((2-(3-(4-((4-((3,4-dichloro-2-fluorophenyl)amino)-7-methoxyquinazolin-6-yl)oxy)piperidin-1-yl)-3-oxopropoxy)ethyl)amino)-2-(2,6-dioxopiperidin-3-yl)isoindoline-1,3-dione] was run?
Its pIC50 is 7.10.

With `COc1cc2ncnc(Nc3ccc(Cl)c(Cl)c3F)c2cc1OC1CCN(C(=O)CCC(=O)N[C@H](C(=O)N2C[C@H](O)C[C@H]2C(=O)NCc2ccc(-c3scnc3C)cc2)C(C)(C)C)CC1` [SIAIS249020, (2S,4R)-1-((S)-2-(4-(4-((4-((3,4-dichloro-2-fluorophenyl)amino)-7-methoxyquinazolin-6-yl)oxy)piperidin-1-yl)-4-oxobutanamido)-3,3-dimethylbutanoyl)-4-hydroxy-N-(4-(4-methylthiazol-5-yl)benzyl)pyrrolidine-2-carboxamide] as the molecule, how does the pIC50 read?
Its pIC50 is 7.12.

How did the pIC50 turn out when `COc1cc2ncnc(Nc3ccc(Cl)c(Cl)c3F)c2cc1OC1CCN(C(=O)CCOCCOCCOCCOCCC(=O)N[C@H](C(=O)N2C[C@H](O)C[C@H]2C(=O)NCc2ccc(-c3scnc3C)cc2)C(C)(C)C)CC1` [SIAIS249027, (2S,4R)-1-((S)-2-(tert-butyl)-19-(4-((4-((3,4-dichloro-2-fluorophenyl)amino)-7-methoxyquinazolin-6-yl)oxy)piperidin-1-yl)-4,19-dioxo-7,10,13,16-tetraoxa-3-azanonadecan-1-oyl)-4-hydroxy-N-(4-(4-methylthiazol-5-yl)benzyl)pyrrolidine-2-carboxamide] was run?
The pIC50 was 6.40.

same assay, conditions: Homo sapiens, HCC827, 72 h, Table 4, gefitinib and sapitinib-based compounds; HCC827 (Exon19 Del); 72 hours; WST; read-out: IC50 (half inhibitory concentration)

`COc1cc2ncnc(Nc3cccc(Cl)c3F)c2cc1OC1CCN(CC(=O)NCCCCSc2cccc3c2CN(C2CCC(=O)NC2=O)C3=O)CC1` (stereo not shown) [SIAIS293067, 2-(4-((4-((3-chloro-2-fluorophenyl)amino)-7-methoxyquinazolin-6-yl)oxy)piperidin-1-yl)-N-(4-((2-(2,6-dioxopiperidin-3-yl)-1-oxoisoindolin-4-yl)thio)butyl)acetamide] was tested. Which pIC50 did it give?
Its pIC50 is 9.52.

`CNC(=O)CN1CCC(Oc2cc3c(Nc4cccc(Cl)c4F)ncnc3cc2OC)CC1` [Sapitinib (AZD8931), sapitinib, reference compound] was tested. Which pIC50 did it give?
The pIC50 was 9.40.

`COc1cc2ncnc(Nc3ccc(F)c(Cl)c3)c2cc1OC1CCN(CC(=O)NCCSc2cccc3c2CN(C2CCC(=O)NC2=O)C3=O)CC1` (stereo not shown) [SIAIS293047, 2-(4-((4-((3-chloro-4-fluorophenyl)amino)-7-methoxyquinazolin-6-yl)oxy)piperidin-1-yl)-N-(2-((2-(2,6-dioxopiperidin-3-yl)-1-oxoisoindolin-4-yl)thio)ethyl)acetamide] was tested. Which pIC50 did it give?
Its pIC50 is 7.92.

With `COc1cc2ncnc(Nc3ccc(F)c(Cl)c3)c2cc1OCCCN1CCN(C(=O)CSc2cccc3c2CN(C2CCC(=O)NC2=O)C3=O)CC1` (stereo not shown) [SIAIS184184, 3-(4-((2-(4-(3-((4-((3-chloro-4-fluorophenyl)amino)-7-methoxyquinazolin-6-yl)oxy)propyl)piperazin-1-yl)-2-oxoethyl)thio)-1-oxoisoindolin-2-yl)piperidine-2,6-dione] as the molecule, how does the pIC50 read?
Its pIC50 is 7.00.

`COc1cc2ncnc(Nc3ccc(F)c(Cl)c3)c2cc1OCCCN1CCN(C(=O)CCCSc2cccc3c2C(=O)N(C2CCC(=O)NC2=O)C3=O)CC1` (stereo not shown) [SIAIS184165, 4-((4-(4-(3-((4-((3-chloro-4-fluorophenyl)amino)-7-methoxyquinazolin-6-yl)oxy)propyl)piperazin-1-yl)-4-oxobutyl)thio)-2-(2,6-dioxopiperidin-3-yl)isoindoline-1,3-dione] was tested. Which pIC50 did it give?
Its pIC50 is 7.24.

`COc1cc2ncnc(Nc3cccc(Cl)c3F)c2cc1OC1CCN(CC(=O)NCCCCCCCCSc2cccc3c2CN(C2CCC(=O)NC2=O)C3=O)CC1` (stereo not shown) [SIAIS293070, 2-(4-((4-((3-chloro-2-fluorophenyl)amino)-7-methoxyquinazolin-6-yl)oxy)piperidin-1-yl)-N-(8-((2-(2,6-dioxopiperidin-3-yl)-1-oxoisoindolin-4-yl)thio)octyl)acetamide] was tested. Which pIC50 did it give?
The pIC50 was 7.85.

same assay, conditions: Homo sapiens, HCC827, 72 h, Table 5, afatinib-based compounds; HCC827 (Exon19 Del); 72 hours; WST; read-out: IC50 (half inhibitory concentration)

`O=C1CCC(N2C(=O)c3cccc(SCCOCCOCCOCCOCC(=O)Nc4cc5c(Nc6ccc(F)c(Cl)c6)ncnc5cc4O[C@H]4CCOC4)c3C2=O)C(=O)N1` (stereo partly drawn) [SIAIS184155, N-(4-((3-chloro-4-fluorophenyl)amino)-7-(((S)-tetrahydrofuran-3-yl)oxy)quinazolin-6-yl)-14-((2-(2,6-dioxopiperidin-3-yl)-1,3-dioxoisoindolin-4-yl)thio)-3,6,9,12-tetraoxatetradecan-1-amide] was tested. Which pIC50 did it give?
The pIC50 was 7.10.

same assay, conditions: Homo sapiens, HCC827, 72 h, Table 8, osimertinib-based compounds; HCC827; 72 hours; WST; read-out: IC50 (half inhibitory concentration)

How did the pIC50 turn out when `C=CC(=O)Nc1cc(Nc2nccc(-c3cn(C)c4ccccc34)n2)c(OC)cc1N(C)CCN(C)C(=O)CCCCCCCCSc1cccc2c1CN(C1CCC(=O)NC1=O)C2=O` (stereo not shown) [SIAIS337059, N-(2-((2-acrylamido-5-methoxy-4-((4-(1-methyl-1H-indol-3-yl)pyrimidin-2-yl)amino)phenyl)(methyl)amino)ethyl)-9-((2-(2,6-dioxopiperidin-3-yl)-1-oxoisoindolin-4-yl)thio)-N-methylnonanamide] was run?
Its pIC50 is 7.33.

With `C=CC(=O)Nc1cc(Nc2nccc(-c3cn(C)c4ccccc34)n2)c(OC)cc1N(C)CCN(C)C(=O)CCCCCCCCCCSc1cccc2c1CN(C1CCC(=O)NC1=O)C2=O` (stereo not shown) [SIAIS337061, N-(2-((2-acrylamido-5-methoxy-4-((4-(1-methyl-1H-indol-3-yl)pyrimidin-2-yl)amino)phenyl)(methyl)amino)ethyl)-11-((2-(2,6-dioxopiperidin-3-yl)-1-oxoisoindolin-4-yl)thio)-N-methylundecanamide] as the molecule, how does the pIC50 read?
Its pIC50 is 6.45.

`C=CC(=O)Nc1cc(Nc2nccc(-c3cn(C)c4ccccc34)n2)c(OC)cc1N(C)CCN(C)C(=O)COCCOCCOCCOCCSc1cccc2c1CN(C1CCC(=O)NC1=O)C2=O` (stereo not shown) [SIAIS337077, N-(2-((2-acrylamido-5-methoxy-4-((4-(1-methyl-1H-indol-3-yl)pyrimidin-2-yl)amino)phenyl)(methyl)amino)ethyl)-14-((2-(2,6-dioxopiperidin-3-yl)-1-oxoisoindolin-4-yl)thio)-N-methyl-3,6,9,12-tetraoxatetradecanamide] was tested. Which pIC50 did it give?
Its pIC50 is 7.44.

`C=CC(=O)Nc1cc(Nc2nccc(-c3cn(C)c4ccccc34)n2)c(OC)cc1N(C)CCN(C)C(=O)CCCCSc1cccc2c1CN(C1CCC(=O)NC1=O)C2=O` (stereo not shown) [SIAIS337055, N-(2-((2-acrylamido-5-methoxy-4-((4-(1-methyl-1H-indol-3-yl)pyrimidin-2-yl)amino)phenyl)(methyl)amino)ethyl)-5-((2-(2,6-dioxopiperidin-3-yl)-1-oxoisoindolin-4-yl)thio)-N-methylpentanamide] was tested. Which pIC50 did it give?
The pIC50 was 6.34.

How did the pIC50 turn out when `C=CC(=O)Nc1cc(Nc2nccc(-c3cn(C)c4ccccc34)n2)c(OC)cc1N(C)CCN(C)C(=O)COCCOCCOCCOCCOCCSc1cccc2c1CN(C1CCC(=O)NC1=O)C2=O` (stereo not shown) [SIAIS337078, N-(2-((2-acrylamido-5-methoxy-4-((4-(1-methyl-1H-indol-3-yl)pyrimidin-2-yl)amino)phenyl)(methyl)amino)ethyl)-17-((2-(2,6-dioxopiperidin-3-yl)-1-oxoisoindolin-4-yl)thio)-N-methyl-3,6,9,12,15-pentaoxaheptadecanamide] was run?
Its pIC50 is 6.90.
